Source: patent US11339193B2, “CDP protein secretion inhibitors” (KEZAR LIFE SCIENCES, priority 2018, dated 2022)
Peptide text beside a SMILES is read from it.

Tests used:
Type in all cases: cell-based
[1] = system: TNFα-FL/Gaussia Luciferase; assay: Dox induced TNFα-FL-Gluc assay; conditions: Flp-In 293 T-REx cells, doxycycline, 24 hours; read-out: TNFa FL Gluc IC50
Method in brief: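 Stable Flp-In 293 T-REx line expressing full-length TNFα (aa 1-233) fused at its C-terminus to Gaussia luciferase under doxycycline-inducible control. Cells plated the day before, then given compound dilutions in DMSO/media containing doxycycline and incubated at 37 °C, 5% CO2.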

[2] = system: PD1-ss+10aa/Gaussia Luciferase; assay: Dox induced PD1-ss-Gluc assay; conditions: Flp-In 293 T-REx cells, doxycycline, 24 hours; read-out: PD1ss Gluc IC50
Method in brief: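 Stable Flp-In 293 T-REx line expressing doxycycline-inducible Gaussia luciferase fused to the PD1 signal sequence plus 10 amino acids. Cells plated the day before, then exposed to compound dilutions in DMSO/media containing doxycycline at 37 °C, 5% CO2.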

HER3ss-Gluc = assay: HER3ss assay; conditions: HEK-293T T-rex cells, transient transfection, doxycycline, 24 h; read-out: HER3 ss IC50
Method in brief: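 HEK-293T T-REx cells were transiently transfected with HER3 signal sequence (plus four mature-domain residues) fused upstream of mature Gaussia luciferase. Cells were induced with doxycycline (1 μg/ml) and exposed to increasing compound concentrations for 24 h, then secreted luciferase in the conditioned medium was read by luminescence.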

[3] = system: U266B1 multiple myeloma cell line; assay: U266 assay (cell viability, Celltiter-Glo); conditions: Homo sapiens, U-266; 48 hours, cell viability
Procedure: Cells were plated in 384-well tissue culture plates and treated with compound dilutions in DMSO/media. Plates were incubated at 37° C., 5% CO2 for 48 hours. After 48 hours, Celltiter-Glo@ (Promega) was added to each well and luciferase signal was quantified using Tecan Infinite M1000 Pro for cell viability determination.

| Compound | IC50 [1] | IC50 [2] | IC50 (HER3ss-Gluc) | EC50 [3] |
| --- | --- | --- | --- | --- |
| C#CC[C@H]1OC(=O)[C@H](C)N(C)C(C)[C@H](C[C@H](C)CCCC)NC(=O)[C@H](Cc2ccccc2)N(C)C(=O)[C@H](CC(C)C)NC(=O)[C@H](CC(C)C)N(C)C(=O)[C@H](C[C@H](C)CCCC)NC1=O (some centres unmarked) [C-01] | 0.079 µM | 0.056 µM | 0.04 µM | 23.5 µM |
| CC(C)C[C@@H]1NC(=O)[C@H](Cc2cn(Cc3ccccc3)c3ccccc23)N(C)C(=O)[C@H](CC(C)C)NC(=O)[C@H](CC(C)C)N(C)C(=O)[C@H](CC(C)C)NC(=O)[C@@H](CCC#N)OC(=O)[C@H](C)N(C)C1=O [C-16] (HELM PEPTIDE1{L.[meA].[N#CCC[C@@H](O[*:1])C(=O)[*:2]].L.[meL].L.[CN([C@@H](Cc1cn(Cc2ccccc2)c2ccccc12)C(=O)[*:2])[*:1]]}$PEPTIDE1,PEPTIDE1,1:R1-7:R2$$$V2.0) | 0.092 µM | 0.027 µM | 0.038 µM | 13.4 µM |
